Results published in patent US9029080B2, “Screening assay for insecticides” (priority 2008, dated 2015).

Legend:
[1] = tested on: CHO_pcDNA3 control cells; assay: CHO_pcDNA3 control cells, FLIPR KCl depolarization; type: cell-based, Chinese hamster; conditions: 4-5 mM, dye loaded 1 hr at RT
Method: (§1) The effects of barium (Ba2+) on ShaI_delN function were tested. Barium is known to inhibit some open rectifier and inward rectifier K-channel activities. Cells were dye loaded in the presence of BaCl2 for 1 hr at RT and assayed on the FLIPR using KCl depolarization for channel activation.

[2] = target: T1, ShaI_delN (Drosophila melanogaster, UniProt P17971); assay: ShaI_delN clonal lines, FLIPR blue membrane potential dye, KCl depolarization; type: cell-based; conditions: 4-5 mM, dye loaded 1 hr at RT
T1 construct: expressed in transfected cells; host or cells: CHO
Method: ShaI_DelN C10 and C15 were tested for function on the FLIPR using the Molecular Devices blue membrane potential dye. The cells were seeded at 60K cells/well in 96-well Costar plates in complete media and assayed for function at 24 hrs. Depolarization with 15-60 mM KCl caused a 2-2.8 fold higher activity in the clonal line than the pcDNA control cell line (FIG. 5). Clone 10 had slightly higher activity than clone 15.
FIG. 5: ShaI_DelN clones tested on FLIPR with KCl depolarization. We also tested some known K-channel blockers on channel activity on the FLIPR (FIG. 6). […] The ShaI_delN clonal cell lines lost their GFP expression and assay window with cell passage. At passage 12, only 10-15% of the cell population was GFP positive.
as §1

[3] = target: T2, ShaI (Drosophila melanogaster, UniProt P17971); assay: ShaI electrophysiology (patch clamp); type: cell-based
T2 construct: expressed in transfected cells; host or cells: CHO
T2 sequence (P17971 1-490 isoform P17971-1): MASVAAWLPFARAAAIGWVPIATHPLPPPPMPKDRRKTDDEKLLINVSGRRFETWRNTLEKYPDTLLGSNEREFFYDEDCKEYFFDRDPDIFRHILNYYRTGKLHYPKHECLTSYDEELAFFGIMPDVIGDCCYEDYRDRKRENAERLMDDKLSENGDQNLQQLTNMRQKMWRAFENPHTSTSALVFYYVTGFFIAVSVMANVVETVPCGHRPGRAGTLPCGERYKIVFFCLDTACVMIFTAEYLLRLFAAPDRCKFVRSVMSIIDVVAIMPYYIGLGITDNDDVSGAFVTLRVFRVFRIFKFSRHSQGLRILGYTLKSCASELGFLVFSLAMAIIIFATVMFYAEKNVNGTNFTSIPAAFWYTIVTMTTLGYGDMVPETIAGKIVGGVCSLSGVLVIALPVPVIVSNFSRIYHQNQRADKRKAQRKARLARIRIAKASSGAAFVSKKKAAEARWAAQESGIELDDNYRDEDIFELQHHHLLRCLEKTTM
Method: Data were acquired and analyzed using pClamp software (version 9.0.1.16). The whole-cell configuration of the patch-clamp technique was used to voltage clamp cells at room temperature (22-25° C.). Pipettes were pulled from borosilicate glass capillaries (#8250, Garner Glass, Claremont, Calif.) using a DMZ Universal Puller (Zeitz, Munich, Germany) and had resistances of 1-2 MOhm when filled with pipette solution and measured in bath solution. The liquid junction potential between bath and pipette solution was always compensated before the formation of a gigaohm seal.
Membrane current was measured under whole-cell clamp, sampled at 2 kHz and filtered at 1 kHz by an Axoclamp 200B (Axon Instruments). Capacitance currents were electronically compensated at the beginning of each experiment. P/4 leak correction was applied.
To study ShaI currents on CHO cells, cells were held at −70 mV and a family of 500 ms test voltage pulses was applied starting from −70 to +70 mV, or +100 mV, in 10 mV increments. The amplitude, as measured for the current-voltage relationship, was defined as the maximal current at a given membrane potential.

[4] = target: T3, DmSK (Drosophila melanogaster, UniProt Q7KVW5); assay: DmSK CHO membrane potential dye assay, ionomycin activation; type: cell-based
T3 construct: The resulting construct contains the SK CDS downstream of the CMV promoter; expressed in transfected cells; host or cells: CHO-K1 (pool 3 / clone SK3 and subclones)
Method: Basic test protocol: Cells were plated at 5×10^4/well into 96-well poly-D-lysine assay plates (BD Biosciences) and placed at 37 C/5% CO2 the day before testing. Culture medium was aspirated and replaced with 0.4× blue membrane potential dye (Molecular Devices Corporation) in assay buffer and incubated for 1 hour at RT. The assay was run by reading baseline fluorescence for 20 sec, and reading an additional 60 or 180 sec after activation.
This assay was developed using the Molecular Devices blue membrane potential dye at 0.4× the normal concentration. It is important to vortex the dye upon hydration and rinse the vial repeatedly to ensure that all the dye has been recovered and that it is in solution. The dye can be stored during the day at 4°. Dye loading is carried out by flipping the culture medium from the 96-well poly-D-lysine plate, gently tapping the plate on Kimwipes to remove excess medium, replacing it with 180 ul 0.4× dye per well, and incubating in the dark at room temperature (25° C.-28° C.) for 3-5 hr. The assay plate is now ready for testing which comprises a 20 ul (10×) first addition and 50 ul (5×) second addition. 50 uM propafenone [final] is used as a control inhibitor. The assay is read for three minutes after activation to allow maximum window development relative to controls. […]

[5] = Ionomycin stability in solution; type: physicochemical; conditions: 5 uM in assay buffer, SK activation
Method: An experiment was conducted (data not shown) to examine the stability of ionomycin in solution. Ionomycin was diluted to 5 uM in assay buffer, loaded into a compound plate and compared with freshly-prepared ionomycin for SK activation the following day. The freshly-prepared ionomycin yielded a statistically significant 6% increase in assay window size, so our recommendation is for freshly-prepared ionomycin.

[6] = target: T4, DmSK Potassium Channel (Drosophila melanogaster, UniProt Q7KVW5); assay: Xenopus laevis oocyte two-electrode voltage clamp of DmSK; type: cell-based; conditions: intracellular injection of 100 mM, oocytes clamped at +5 mV
T4 construct: expressed in transfected cells; host or cells: Xenopus laevis oocytes injected with in vitro transcribed RNA
Method: Purpose: To utilize the oocyte two-electrode voltage clamp expression system to assay functional expression of the […] Drosophila melanogaster small-conductance calcium-activated potassium channel (SK) within Xenopus laevis oocytes.
Stage V-VI oocytes were injected with 50 nl of in vitro transcribed DmSK RNA (1 ug/ul) using a Drummond Nanoject Injector (pCRII-SK2+4D plasmid linearized with HindIII and transcribed using the Ambion T7 mMessage mMachine transcription kit).
Channel expression was assayed using two-electrode voltage clamp (borosilicate glass 1.5 mm×1.12 mm filled with 3M KCl) through a Turbo Tec 10C Amplifier (NPI Instruments) connected to an Apple PowerMac G3 via an ADInstruments PowerLab system.
Injected oocytes with resting potentials greater than −30 mV were clamped at +5 mV and perfused with ND-96 bath solution (96 mM NaCl, 2 mM KCl, 1 mM MgCl2, 0.3 mM CaCl2, 5 mM HEPES at pH 7.5 and 230 mOsm) Currents measured were filtered at 2 kHz and with a 50/60 Hz HumBug noise eliminator.
SK channels were activated with intracellular injection of 100 mM […] (9.2 nl) using the nanoject while clamped. Measured currents were compared to published results of SK activation within oocytes (FIG. 85).

[7] = target: T5, octopamine receptor (OctR) (Drosophila melanogaster, UniProt Q9VCZ3); assay: Transient OctR expression in CHO G-alpha-16 cells, Fluo-4, Discovery microscope; type: cell-based
T5 construct: various amounts of untagged OctR-pcDNA3.1 DNA were transfected into CHO cells; expressed in transfected cells; host or cells: CHO stably expressing G-alpha-16, transient transfection
T5 sequence (Q9VCZ3 1-508): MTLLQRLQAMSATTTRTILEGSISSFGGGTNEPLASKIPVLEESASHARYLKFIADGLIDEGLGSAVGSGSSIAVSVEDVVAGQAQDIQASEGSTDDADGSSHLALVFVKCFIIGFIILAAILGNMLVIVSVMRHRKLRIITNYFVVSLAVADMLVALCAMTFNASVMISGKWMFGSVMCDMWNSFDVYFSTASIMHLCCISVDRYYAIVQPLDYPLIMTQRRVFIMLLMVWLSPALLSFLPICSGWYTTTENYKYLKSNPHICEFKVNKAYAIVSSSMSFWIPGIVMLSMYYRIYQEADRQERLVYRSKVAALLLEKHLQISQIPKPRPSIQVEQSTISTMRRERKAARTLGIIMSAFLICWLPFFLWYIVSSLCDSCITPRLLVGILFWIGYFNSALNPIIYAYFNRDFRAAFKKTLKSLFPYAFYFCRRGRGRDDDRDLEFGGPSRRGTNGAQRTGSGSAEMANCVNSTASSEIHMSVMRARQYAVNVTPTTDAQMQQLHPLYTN
Method: The untagged and GFP-tagged versions of OctR, which natively couples to cAMP, were transiently expressed in CHO cells stably expressing the G-alpha-16 promiscuous G protein, which signals through calcium. This allowed activation of the receptor to be measured by calcium-sensing fluorescent dyes.
In FIG. 55A, various amounts of untagged OctR-pcDNA3.1 DNA were transfected into CHO cells (6-well dish, 300,000 cells/well) and tested for function at 48 hours using Fluo-4 dye on the Discovery microscope. The graph shown below represents an average of all single-cell readings from cells expressing the cyan vector. It is assumed that the majority of cells expressing the cyan vector also express OctR.
FIG. 55. Calcium-sensing Fluo-4 fluorescent dye response to octopamine or tyramine stimulation in CHO cells stably expressing G-alpha-16 and transiently expressing increasing amounts of untagged or GFP-tagged OctR-pcDNA3.1. Cells cotransfected with pAmCyan vector as a marker of transfected cells were stimulated with a maximal dose of octopamine or sub-maximal dose of tyramine. Well averages of single-cell response measured on the Discovery microscope are graphed above.

[8] = tested on: calcium-activated potassium currents; conditions: DUM neurons from cockroaches; cited from earlier work
[9] = target: T6, octopamine receptor (OctR, CG6919 dmOa2) (Drosophila melanogaster, UniProt Q9VCZ3); assay: OctR clone 55 FLIPR Fluo-4 calcium assay; type: cell-based
T6 construct: expressed in transfected cells; host or cells: CHO stably expressing G-alpha-16
Method: FIG. 62. Cells were plated at 10K/well in 384 well plates and allowed to incubate overnight at […]. The cells were assayed 18-24 hours after seeding. Media was removed and cells were dye loaded for 60 minutes with 2 μM Fluo-4. After 1 hour, dye was removed and 20 μl of buffer added to the plate and placed into FLIPR. The 1st addition was antagonist dose response curves and the 2nd addition was agonist dose response curves. Antagonists were challenged with 100 nM Octopamine. In addition, these compounds were tested in the parental cell line CHO-Galpha16.
Cells were plated at 10,000 cells/well in 50 μl into 384-well black TC plates and allowed to incubate overnight at 37° C./5% CO2. The cells were assayed 18-24 hours after seeding. Culture medium was removed by flicking and cells were dye loaded for 60 minutes with 20 μl of 2 μM Fluo-4 in assay buffer plus probenecid at 25° C. After one hour dye was removed by flicking and 20 μL of assay buffer was added, wait 5 min prior to placing into the FLIPR and run using a two-addition protocol. The first addition (20 ul, 2×) was 0.5% DMSO final in assay buffer. The second addition (20 ul, 3×) was either assay buffer or 100 nM octopamine final.

[10] = Stability of octopamine solutions; type: physicochemical
Method: Octopamine was tested comparing freshly diluted versus a 24-hour solution (data not shown). The response obtained with the 24-hour solution stored at room temperature was identical to that of the freshly diluted solution. We have repeatedly […]

**Q.** Which results are given for `[Ba+2]` [Ba2+]?
**A.** fluorescent responses with KCl depolarization [1]: significantly reduced fluorescent responses; ShaI_delN channel activity with KCl depolarization [2]: without any significant reduction; ShaI outward currents [3]: not inhibited

**Q.** For `C[C@H](CCC(=O)O)C[C@H](C)C[C@H](C)C(=O)/C=C(\O)[C@H](C)C[C@H](C)C/C=C/[C@@H](C)[C@@H](O)[C@@H](C)[C@@H](O)C[C@@H]1CC[C@@](C)([C@H]2CC[C@@](C)([C@@H](C)O)O2)O1` [ionomycin], which EC50 [4] is on record?
**A.** 0.2 µM

**Q.** And the “concentration above which no increase in response window” value ([4]; SK3, relative to controls)?
**A.** 800 nM

**Q.** And the “increase in assay window size, freshly-prepared versus solution of the day before” value [5]?
**A.** 6%

**Q.** For `[Cl][Cd][Cl]` [cadmium chloride], which “activation of DmSK outward currents” value [6] is on record?
**A.** outward currents activated by at least three 9.2 nl injections

**Q.** Which “efficacy relative to octopamine” value ([7]; preliminary data and published reports) does the source give for `NCCc1ccc(O)cc1` [tyramine] here?
**A.** only slightly less efficacious

**Q.** What about the “activation of octopamine receptor” value ([7]; sub-maximal dose) of the same compound?
**A.** activated by tyramine

**Q.** With `CSSC` [DMDS, di-methyl disulfide] as the compound, how does the “effect on calcium-activated potassium currents” value [8] read?
**A.** inhibits calcium-activated potassium currents

**Q.** Which “80% octopamine control concentration” value ([9]; 20-plate DMSO test run, 2nd addition) does the source give for `NCC(O)c1ccc(O)cc1` (centres unmarked) [octopamine] here?
**A.** 100 nM

**Q.** And the “rank order of potency (agonists)” value ([9]; clone 55, same as published cAMP data)?
**A.** naphazoline>octopamine>amitraz>clonidine>tolazoline

**Q.** What about the “activity after repeated freeze-thaw” value ([10]; 10 mM DMSO stocks) of the same compound?
**A.** no reduction in activity

**Q.** And the “response of 24-hour solution versus freshly diluted solution” value ([10]; stored at room temperature, data not shown)?
**A.** identical
